In patent publication US7071222B2, “Preparation containing a combination of 5-methylisoxazole-4-carboxylic acid-(4-trifluoromethyl)-anilide and N-(4-trifluoromethylphenyl)2-cyano-3-hydroxycrotonic acid amide” (Sanofi-Aventis Deuschland GmbH, priority 1996, dated 2006):

Columns and labels:
[1] = system: Adjuvant-induced arthritis; test: Adjuvant-induced arthritis, modification in accordance with Perper; type: in vivo, rats of a Lewis strain; settings: Compound 1 10 mg/kg of rat, Compound 2 0 mg/kg; oral once daily day 1-12; determined day 18; vs control group
Protocol: Adjuvant-induced arthritis, modification in accordance with […] (Proc. Soc. exp. Biol. Med. 137, 506 (1971)) Male rats of a Lewis strain (Moellegard, Denmark) having a body weight of from 160 to 210 g are used as the experimental animals. On the 1st day, the animals are injected subcutaneously, into the tail root, with complete Freund's adjuvant containing a suspension of Mycobacterium butyricum in heavy paraffin oil (Difco; […] in paraffin oil; Merck). Compounds 1 and 2 are suspended in carboxymethyl cellulose (1% in water) and this suspension is administered orally. The compounds are administered once daily from the 1st to the 12th day of the experiment. The paw volume and the arthritis index are determined on the 18th day. The severity of the disorder is determined by measuring the volumes of both hind paws. The measurement is carried out by the water displacement method, using a 2060 plethysmometer (Rhema-Labortechnik, Hofheim, Germany). In addition, the arthritis index is determined on the 18th day after injection. [table] Animals forming a control group are only given the solvent (1% carboxymethyl cellulose in water). 6 animals are used for each dose and in the control group. A reduction in the increase in paw volume and a decrease in the arthritis index, as compared with the untreated control group, are used as the criteria for an effect having been achieved.

[2] = Oral administration of compound 1 or compound 2 on its own (background statement); type: in vivo; settings: 5 mg or 10 mg per kg, each compound on its own

Row | Structure (SMILES) | Decrease in arthritis index [1] [%] | Decrease in paw volume [1] [%] | effect of oral administration, compound on its own [2]
1 | Cc1oncc1C(=O)Nc1ccc(C(F)(F)F)cc1 [Compound 1, 5-methyl-4′-trifluoromethyl-4-isoxazolecarboxanilide] | 58 | 74 | does not have any significant effect
2 | C/C(O)=C(\C#N)C(=O)Nc1ccc(C(F)(F)F)cc1 [Compound 2, N-(4-trifluoromethylphenyl)-2-cyano-3-hydroxycrotonamide] | – | – | does not have any significant effect
